Measurements published in ChEMBL document CHEMBL1201862, “PubChem BioAssay data set” (2004).
Activity calls are given as the source filed them.

Experiments:
[1] = microbe, parasite or virus in culture; type: functional; settings: Mycobacterium tuberculosis
[2] = target: T1, Cytochrome P450 1A2 (Homo sapiens, UniProt P05177);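 note: PubChem cytochrome P450 panel assay, CYP1A2 panel member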
T1 sequence (P05177 whole entry): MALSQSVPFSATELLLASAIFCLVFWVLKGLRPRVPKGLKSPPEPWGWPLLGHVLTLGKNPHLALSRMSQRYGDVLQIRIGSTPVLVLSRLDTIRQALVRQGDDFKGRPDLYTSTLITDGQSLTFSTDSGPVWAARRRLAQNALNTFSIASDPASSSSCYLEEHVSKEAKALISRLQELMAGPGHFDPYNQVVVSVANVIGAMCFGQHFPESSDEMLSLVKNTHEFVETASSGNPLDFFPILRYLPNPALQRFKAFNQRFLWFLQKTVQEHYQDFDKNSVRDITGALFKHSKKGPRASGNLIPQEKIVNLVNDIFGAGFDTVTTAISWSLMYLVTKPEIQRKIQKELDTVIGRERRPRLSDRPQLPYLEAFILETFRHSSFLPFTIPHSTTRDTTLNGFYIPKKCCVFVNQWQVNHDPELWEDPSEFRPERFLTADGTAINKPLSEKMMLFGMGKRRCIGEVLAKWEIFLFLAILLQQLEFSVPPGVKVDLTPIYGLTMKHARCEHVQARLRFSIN

[3] = target: Cytochrome P450 2C9 (Homo sapiens, UniProt P11712)
Cytochrome P450 2C9, sequence (P11712 whole entry): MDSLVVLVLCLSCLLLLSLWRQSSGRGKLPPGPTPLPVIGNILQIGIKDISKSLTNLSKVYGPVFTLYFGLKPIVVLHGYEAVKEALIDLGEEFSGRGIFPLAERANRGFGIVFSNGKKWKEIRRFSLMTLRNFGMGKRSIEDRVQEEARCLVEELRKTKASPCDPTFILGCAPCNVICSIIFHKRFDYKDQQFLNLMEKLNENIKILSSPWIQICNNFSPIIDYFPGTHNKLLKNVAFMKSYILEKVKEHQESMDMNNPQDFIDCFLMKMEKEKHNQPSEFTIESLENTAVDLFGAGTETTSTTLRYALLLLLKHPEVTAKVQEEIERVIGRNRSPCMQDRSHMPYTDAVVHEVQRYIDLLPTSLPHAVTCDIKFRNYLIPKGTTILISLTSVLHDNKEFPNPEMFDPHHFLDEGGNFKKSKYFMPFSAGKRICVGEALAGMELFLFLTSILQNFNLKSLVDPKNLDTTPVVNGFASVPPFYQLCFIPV

[4] = target: Cytochrome P450 2C19 (Homo sapiens, UniProt P33261); assay: Cytochrome panel assay with activity outcomes. Panel member name: p450-cyp2c19 Compounds with AC50 equal or less than 10 uM are considered active; type: functional; settings: read-out: AC50
Cytochrome P450 2C19, sequence (P33261 whole entry): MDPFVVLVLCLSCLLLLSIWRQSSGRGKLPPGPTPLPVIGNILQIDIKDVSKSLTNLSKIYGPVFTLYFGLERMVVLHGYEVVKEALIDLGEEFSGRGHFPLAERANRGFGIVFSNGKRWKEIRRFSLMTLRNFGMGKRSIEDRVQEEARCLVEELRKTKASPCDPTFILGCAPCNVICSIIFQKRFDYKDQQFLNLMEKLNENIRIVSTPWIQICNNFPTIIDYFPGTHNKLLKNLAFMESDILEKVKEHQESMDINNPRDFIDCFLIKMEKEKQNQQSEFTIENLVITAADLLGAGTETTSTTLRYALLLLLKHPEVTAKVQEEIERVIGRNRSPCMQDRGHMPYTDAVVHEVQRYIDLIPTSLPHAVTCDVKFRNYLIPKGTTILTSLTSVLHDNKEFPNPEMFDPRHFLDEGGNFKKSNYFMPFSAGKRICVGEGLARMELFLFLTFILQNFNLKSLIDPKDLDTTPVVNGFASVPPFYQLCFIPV

[5] = target: T2, DNA repair protein RAD52 homolog (Homo sapiens, UniProt P43351); type: functional, biochemical
T2 sequence (P43351 whole entry): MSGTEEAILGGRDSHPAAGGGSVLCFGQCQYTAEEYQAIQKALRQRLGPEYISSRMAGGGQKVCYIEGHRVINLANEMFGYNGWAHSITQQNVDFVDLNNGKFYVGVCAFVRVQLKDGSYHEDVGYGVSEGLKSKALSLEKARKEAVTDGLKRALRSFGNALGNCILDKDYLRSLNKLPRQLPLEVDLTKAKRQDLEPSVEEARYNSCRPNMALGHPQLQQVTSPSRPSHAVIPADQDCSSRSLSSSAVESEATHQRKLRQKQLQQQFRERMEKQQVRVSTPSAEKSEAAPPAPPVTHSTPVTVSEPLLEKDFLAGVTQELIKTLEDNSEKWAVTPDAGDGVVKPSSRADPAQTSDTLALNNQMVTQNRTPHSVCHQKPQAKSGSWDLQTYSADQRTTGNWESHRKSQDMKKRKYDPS

[6] = target: T3, Ubiquitin-conjugating enzyme E2 N (Homo sapiens, UniProt P61088); type: functional;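 note: Dose-response confirmation in a TR-FRET assay detecting UBC13-driven polyubiquitin chain formation, inhibition measured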
T3 sequence (P61088 whole entry): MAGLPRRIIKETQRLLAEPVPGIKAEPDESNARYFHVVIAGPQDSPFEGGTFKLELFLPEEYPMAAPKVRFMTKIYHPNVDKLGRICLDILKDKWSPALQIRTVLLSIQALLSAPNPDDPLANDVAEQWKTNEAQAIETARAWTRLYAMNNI

[7] = system: INS1; assay: INS-1E survival protection against cytokine death – cell-based, luminescence, retest, dose response (AID 449756); type: functional; settings: Rattus norvegicus, INS1;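 note: cell death triggered by IL-1 beta plus TNF-alpha plus IFN-gamma mixture; protective hits raise ATP signal compared with cytokine alone wells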
[8] = system: Streptococcus sp. 'group A'; assay: Streptococcus pyogenes SK(-)GAS viability under kanamycin – luminescence, BacTiterGlo, confirmation, counter-screen for streptokinase expression inhibitor project, dose response (AID 1900); type: functional, organism-based
[9] = system: Streptococcus; assay: GAS UMAA2166 growth inhibition – luminescence, BacTiterGlo, counter-screen for streptokinase expression inhibitor project, dose response (AID 1915); type: functional, organism-based;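 note: potency for reduction of bacterial viability or growth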
[10] = target: Large T antigen (Simian virus 40, UniProt P03070); type: functional, Betapolyomavirus macacae;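 note: Confirmatory-stage PubChem screen for compounds that inhibit SV40 T antigen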
Large T antigen, sequence (P03070 whole entry): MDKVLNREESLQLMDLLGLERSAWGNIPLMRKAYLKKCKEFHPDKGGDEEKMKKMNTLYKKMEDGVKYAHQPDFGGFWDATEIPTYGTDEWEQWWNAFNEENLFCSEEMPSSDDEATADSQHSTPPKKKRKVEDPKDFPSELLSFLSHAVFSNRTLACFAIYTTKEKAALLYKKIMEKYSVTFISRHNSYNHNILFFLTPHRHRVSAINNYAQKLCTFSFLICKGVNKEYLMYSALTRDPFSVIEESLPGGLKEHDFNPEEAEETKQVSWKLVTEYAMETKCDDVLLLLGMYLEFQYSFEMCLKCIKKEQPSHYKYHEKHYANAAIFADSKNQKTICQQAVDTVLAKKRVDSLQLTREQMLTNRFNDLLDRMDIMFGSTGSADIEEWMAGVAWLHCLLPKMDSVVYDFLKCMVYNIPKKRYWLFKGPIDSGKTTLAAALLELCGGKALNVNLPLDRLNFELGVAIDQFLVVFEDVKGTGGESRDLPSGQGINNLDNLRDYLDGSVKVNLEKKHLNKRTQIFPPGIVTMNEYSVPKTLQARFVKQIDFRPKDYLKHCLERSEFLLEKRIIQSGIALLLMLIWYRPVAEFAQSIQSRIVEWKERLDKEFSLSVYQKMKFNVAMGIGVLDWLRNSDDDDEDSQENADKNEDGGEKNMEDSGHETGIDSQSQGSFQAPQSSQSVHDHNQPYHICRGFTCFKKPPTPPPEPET

[11] = target: T4, Streptokinase A (Streptococcus pyogenes serotype M1, UniProt P10520); assay: viability-normalized secreted streptokinase activity reduction – plasminogen activation absorbance, OD405, dose response (AID 1914); type: functional, Streptococcus pyogenes M1 GAS;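 note: secreted streptokinase activity via plasminogen activation per viability signal from cell pellet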
T4 sequence (P10520 whole entry): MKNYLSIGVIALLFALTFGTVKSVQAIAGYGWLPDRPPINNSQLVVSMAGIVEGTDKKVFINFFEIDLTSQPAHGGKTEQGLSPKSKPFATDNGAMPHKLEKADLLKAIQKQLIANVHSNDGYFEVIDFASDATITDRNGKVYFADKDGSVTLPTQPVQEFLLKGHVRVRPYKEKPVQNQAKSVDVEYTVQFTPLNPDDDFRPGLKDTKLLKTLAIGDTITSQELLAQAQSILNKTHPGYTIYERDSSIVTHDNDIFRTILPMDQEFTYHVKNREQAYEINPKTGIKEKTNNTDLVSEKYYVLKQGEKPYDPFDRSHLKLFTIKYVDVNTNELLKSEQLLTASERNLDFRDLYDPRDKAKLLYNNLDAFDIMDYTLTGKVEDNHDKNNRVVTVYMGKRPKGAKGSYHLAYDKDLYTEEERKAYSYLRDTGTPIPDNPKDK

[12] = target: T5, Short transient receptor potential channel 4 (Mus musculus, UniProt Q9QUQ5); assay: block of DAMGO-driven TRPC4 calcium entry – cell-based, HEK293 TRPC4/mu-opioid, Fluo-4 calcium, dose response (AID 434942); type: functional;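 note: potency of inhibitors blocking the TRPC4 calcium response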
T5 sequence (Q9QUQ5 whole entry): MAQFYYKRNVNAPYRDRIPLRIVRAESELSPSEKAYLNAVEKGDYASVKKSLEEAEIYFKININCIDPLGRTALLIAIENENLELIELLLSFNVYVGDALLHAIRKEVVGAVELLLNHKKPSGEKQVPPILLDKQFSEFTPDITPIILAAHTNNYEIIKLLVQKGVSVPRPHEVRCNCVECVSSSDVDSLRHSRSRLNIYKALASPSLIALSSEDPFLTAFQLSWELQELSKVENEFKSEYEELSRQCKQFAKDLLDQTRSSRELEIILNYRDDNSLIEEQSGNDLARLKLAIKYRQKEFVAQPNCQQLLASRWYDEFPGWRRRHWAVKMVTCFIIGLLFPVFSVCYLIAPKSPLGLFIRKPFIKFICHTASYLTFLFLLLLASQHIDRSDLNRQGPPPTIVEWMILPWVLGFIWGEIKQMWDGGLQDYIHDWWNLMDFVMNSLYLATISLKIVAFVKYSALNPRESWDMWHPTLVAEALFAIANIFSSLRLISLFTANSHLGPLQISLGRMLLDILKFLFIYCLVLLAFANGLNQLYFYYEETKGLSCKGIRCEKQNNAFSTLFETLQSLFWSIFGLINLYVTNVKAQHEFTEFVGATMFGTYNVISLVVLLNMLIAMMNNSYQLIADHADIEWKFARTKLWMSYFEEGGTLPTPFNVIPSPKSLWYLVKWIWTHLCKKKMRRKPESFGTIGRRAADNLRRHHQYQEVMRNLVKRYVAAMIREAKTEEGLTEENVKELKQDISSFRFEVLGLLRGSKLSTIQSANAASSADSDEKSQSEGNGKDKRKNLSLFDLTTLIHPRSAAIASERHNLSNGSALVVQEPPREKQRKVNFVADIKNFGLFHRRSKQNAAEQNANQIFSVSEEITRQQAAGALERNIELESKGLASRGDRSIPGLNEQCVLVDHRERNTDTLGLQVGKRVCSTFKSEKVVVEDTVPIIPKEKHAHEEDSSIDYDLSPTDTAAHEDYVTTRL

[13] = blockers of HIV-1 ZM109 envelope-driven cell-cell fusion – HeLa effector, CEM target cells, luciferase, cherry-pick, dose response (AID 652058); type: functional, cell-based;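 note: luciferase signal from HIV-1 Env mediated cell-cell fusion of effector and target cells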
[14] = HIV-1 AD8 envelope cell-cell fusion blockers – cherry-pick, dose response (AID 652062); type: functional, cell-based;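 note: luciferase signal from cell-cell fusion driven by HIV-1 clade B AD8 Env; potency is for inhibitors of fusion seen as a drop in luminescence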
[15] = blockers of HIV-1 envelope-mediated cell-cell fusion – cherry-pick, dose response (AID 652057); type: functional, cell-based
[16] = Luminescence Cell-Based Dose Retest to Confirm Inhibitors of Cancer Stem Cells. [Related pubchem assays (depositor defined):AID2717, AID2721]; type: functional; settings: Homo sapiens

Question: Which CC50 [1] does the source give for `CCOC(=O)C(C)Sc1nc(-c2cccs2)ccc1C#N` (stereo not drawn) here?
Answer: 38.9 µM (active)

Question: Which AC50 [2] does the source give for `Fc1cccc(Cl)c1CSc1nc[nH]n1` here?
Answer: 10 µM (inconclusive)

Question: And the AC50 [3]?
Answer: inconclusive

Question: What about the AC50 [4] of the same molecule?
Answer: 39.8 µM (inconclusive)

Question: Which AC50 [5] does the source give for `Cc1cc(C)c2nc(NCCCNC(=S)NCCCN(C)C)c(C#N)cc2c1` here?
Answer: 7.63 µM (active)

Question: And the IC50 [6]?
Answer: > 20 µM (inactive)

Question: For `COc1cnc(-c2ccccn2)nc1Oc1ccc(Cl)c2ccccc12`, which AC50 [7] is on record?
Answer: 4.86 µM (active)

Question: And the EC50 [8]?
Answer: 1.77 µM (active)

Question: What about the EC50 [9] of the same molecule?
Answer: 20.1 µM (inconclusive)

Question: What about the IC50 [10] of the same molecule?
Answer: 7.48 µM (active)

Question: What about the CC50 [1] of the same molecule?
Answer: 16.9 µM (active)

Question: And the EC50 [11]?
Answer: > 150 µM (not active)

Question: With `CC(C)(C)CN1CCNC[C@H]1Cc1cccc2ccccc12` as the molecule, how does the IC50 [6] read?
Answer: > 20 µM (inactive)

Question: Which EC50 [12] does the source give for `O/N=C/c1ccccc1Oc1ccc(Cl)cc1` here?
Answer: 6.68 µM (active)

Question: Which results are given for `C[C@H](CO)N1C[C@H](C)[C@H](CN(C)S(=O)(=O)c2ccc(F)cc2)Oc2ncc(/C=C/c3ccccc3)cc2C1=O`?
Answer: AC50 [13]: 13.9 µM (active); AC50 [14]: 28.3 µM (active); AC50 [15]: 16.5 µM (active)

Question: For `CN1[C@@H]2CC[C@H]1CC(O)C2` (stereo partly drawn), which AC50 [3] is on record?
Answer: inconclusive

Question: Which CC50 [1] does the source give for `c1ccc(CN2CCN(c3nc(NCc4ccco4)c4ccccc4n3)CC2)cc1` here?
Answer: 24.4 µM (active)

Question: What about the AC50 [16] of the same molecule?
Answer: 3.34 µM (active)

Question: For `O=C(CCCCCN1C(=O)c2ccccc2C1=O)NCCc1nc2ccccc2[nH]1`, which IC50 [6] is on record?
Answer: > 20 µM (inactive)

Question: With `Cc1ccc(S(=O)(=O)O/N=C2/CCCc3occc32)cc1` as the molecule, how does the AC50 [3] read?
Answer: inconclusive

Question: What about the AC50 [4] of the same molecule?
Answer: 35.5 µM (inconclusive)
